Legend:
tps1Δ cells = experiment: Growth rescue of tps1Δ strain on glucose (growth curves, 2% galactose medium); assay type: cell-based, S. cerevisiae; settings: 100 μM compound, 2.5 mM glucose
Method in brief: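 tps1Δ yeast pregrown in Complete Synthetic medium with 2% galactose, washed, resuspended to OD 0.1; compounds added 10 min before glucose. Growth followed as OD595 every 30 min at 30 °C in at least three technical replicates.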

[1] = test system: A549 lung adenocarcinoma cells; experiment: A549 cell proliferation / growth inhibition; assay type: cell-based, human; settings: for Selected from primary screen for growth inhibition of A549 cells at 50 μM: 50 μM compound, 1 mM glucose; for Selected for having an IC50 ratio (10 mM glucose: 1 mM glucose) of A549 growth higher than WBC-A: IC50 on 10 mM vs 1 mM glucose, compared with WBC-A
Method in brief: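 A549 growth screened in RPMI with 1 mM glucose, compounds at 50 μM; cell number from counts of Hoechst-stained nuclei after 3 days. Growth curves also followed by IncuCyte phase-contrast confluency over 3–5 days (1000–1500 cells/well), DMSO ≤0.1%, ≥4 technical repeats.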

SMILES | Rescue of the tps1Δ strain on 2.5 mM glucose at 100 μM (tps1Δ cells) | Selected from primary screen for growth inhibition of A549 cells at 50 μM [1] | Selected for having an IC50 ratio (10 mM glucose: 1 mM glucose) of A549 growth higher than WBC-A [1]
CCN(CC)CCSc1nc(C)nc2sc3c(c12)CCC3 [33C] | No | Yes | Lower IC50 ratio
Cc1nnc(SCC(=O)NCc2ccco2)c2c1cnn2-c1ccccc1 [71C] | No | No | –
CNc1nnc(Sc2nc(C)nc3scc(-c4cccs4)c23)s1 [32A] | No | No | –
OCCCSc1ncnc2scc(-c3ccc(F)cc3)c12 [53C] | No | No | –
Cc1nc(SCCN2CCOC2=O)c2c(-c3cccs3)csc2n1 [26C] | Yes | No | –
CCc1nc(Sc2nnc(CO)n2C)c2ccsc2n1 [41A] | No | Yes | Lower IC50 ratio
Cc1nc(Sc2nc(CSc3ccccc3)nc3sc(C)c(C)c23)n[nH]1 [10A] | No | No | –
COc1ccccc1-n1ncc2c(C)nnc(SCC(N)=O)c21 [68C] | No | No | –
Cc1cc(NC(=O)CSc2nnc(C)c3cnn(-c4ccccc4)c23)no1 [72C] | No | No | –
CCn1nnnc1Sc1nc(CN2CCOCC2)nc2scc(-c3cccs3)c12 [8C] | No | Yes | Lower IC50 ratio
Cc1nc(SCC(=O)N(C)Cc2ccco2)c2c(-c3cccs3)csc2n1 [27B] | No | No | –
CSc1nnc(Sc2nc(C)nc3scc(-c4cccs4)c23)s1 [29A] | No | No | –
CC(=O)Nc1ccc(C(=O)CSc2nc(C)nc3scc(-c4cccs4)c23)cc1 [17B] | No | Yes | Higher IC50 ratio, but false-positive
OCCSc1ncnc2sc3c(c12)CCCC3 [27C] | No | No | –
Cn1nnnc1Sc1nc(CN2CCOCC2)nc2scc(-c3cccs3)c12 [54A] | No | Yes | Lower IC50 ratio
COC(=O)CSc1nnc(C(C)C)c2cnn(-c3ccc(C)cc3)c12 [76C] | No | Yes | Lower IC50 ratio
c1csc(-c2csc3nc(CN4CCOCC4)nc(Sc4ccncc4)c23)c1 [40C] | No | Yes | Lower IC50 ratio
Cc1nc(Sc2nnc(-c3cccnc3)n2C2CC2)c2c(-c3cccs3)csc2n1 [24A] | No | Yes | Lower IC50 ratio

SMILES | Rescue of the tps1Δ strain on 2.5 mM glucose at 100 μM (tps1Δ cells) | Selected from primary screen for growth inhibition of A549 cells at 50 μM [1] | Selected for having an IC50 ratio (10 mM glucose: 1 mM glucose) of A549 growth higher than WBC-A [1]
Cc1nc(SCCN2CCOCC2)c2cc(-c3ccccc3)sc2n1 [41C] | No | Yes | Lower IC50 ratio
O=c1ccnc(Sc2nc(CN3CCOCC3)nc3scc(-c4cccs4)c23)[nH]1 [7A] | No | No | –
CCN(CC)CCSc1ncnc2scc(-c3ccccc3)c12 [36C] | No | Yes | Lower IC50 ratio
c1nc(SCCN2CCOCC2)c2c3c(sc2n1)CCCC3 [84C] | No | No | –
Cc1ccc(-c2csc3ncnc(SCC(=O)N(C)Cc4ccco4)c23)cc1 [20B] | No | Yes | Lower IC50 ratio
Cc1nc(SCC(=O)NCC(=O)Nc2cccc(C)c2C)c2c(-c3cccs3)csc2n1 [41B] | No | No | –
Cc1nnc(Sc2nc(CN3CCOCC3)nc3scc(-c4cccs4)c23)n1C [6C] | No | Yes | Lower IC50 ratio
CC(=O)CSc1nc(C)nc2scc(-c3cccs3)c12 [26B] | No | No | –
COc1ccc(-c2csc3nc(C)nc(Sc4nnc(C)n4C)c23)cc1OC [5A] | No | No | –
Cc1sc2nc(CN3CCOCC3)nc(Sc3nnc4n3CCCCC4)c2c1C [28A] | No | No | –
CCOC(=O)c1sc2nc(C)nc(SCC(=O)CC)c2c1C [12C] | No | No | –
Cc1nc2scc(-c3cccs3)c2c(=O)[nH]1 [48C] | No | No | –
c1ccn2c(Sc3ncnc4sc5c(c34)CCC5)nnc2c1 [60A] | No | No | –
CCN(CC)Cc1nc(Sc2nnc(C3CC3)n2CCC(N)=O)c2c(C)c(C)sc2n1 [66A] | No | No | –
Cc1nc(SCC(C#N)CCC#N)c2c(-c3cccs3)csc2n1 (centres unmarked) [21C] | No | No | –
Cc1nc(SCC(=O)NC(C)(C)C)c2c(-c3cccs3)csc2n1 [32B] | Yes | Yes | Lower IC50 ratio
Cc1nc(Sc2nnc(-c3ccncc3)n2C)c2c(-c3cccs3)csc2n1 [26A] | Yes | Yes | Lower IC50 ratio
Cc1nc(N(C)CC(N)=O)c2c(-c3cccs3)csc2n1 [39B] | No | No | –
